Patent US20060252827A1, “Therapeutic use of acyglycerols and the nitrogen-and sulphur-containing analogues thereof” (priority 2003, published 2006)

Columns and labels:
[1] = tested on: LDL; assay: LDL oxidation by copper, conjugated diene formation (OD 234 nm); type: biochemical; details: for increase in the lag phase: relative to copper alone; for increase in the lag phase / lag phase for conjugated diene formation: FIG. 2a; for decrease in the maximum amount of conjugated dienes formed: copper alone 496 nmol per mg of LDL, FIG. 2c; for rate of conjugated diene formation (LDL oxidation rate): copper alone 3, FIG. 2b; for lag phase for conjugated diene formation: copper alone 104 minutes
Method: LDL were prepared as described in Lebeau et al. (Lebeau, Furman et al. 2000). The solutions of the test compounds were prepared at 10^−2 M in ethanol and diluted in PBS so that the final concentration ranged from 0.1 to 100 μM with a total ethanol concentration of 1% (V/V).
Before oxidation, EDTA was removed from the LDL preparation by dialysis. The oxidation reaction was then carried out at 30° C. by adding 100 μl of 16.6 μM CuSO4 or 2 mM MPH to 800 μl of LDL (125 μg protein/ml) and 100 μl of a test compound solution. The formation of dienes, the species to be followed, was measured by the optical density at 234 nm in the samples treated with the compounds in the presence or absence of copper (or MPH). Optical density at 234 nm was measured every 10 minutes for 8 hours on a thermostated spectrophotometer (Kontron Uvikon 930). The analyses were carried out in triplicate. A compound was considered to have antioxidant activity when it shifted the lag phase latency relative to the control sample. […] FIG. 2 presents an example of the results obtained with the inventive compounds.

[2] = biological target: T1, hPPARα (Gal4/PPARα chimera) (Homo sapiens, UniProt Q07869); assay: Gal4/PPARα transactivation system in HepG2 cells (luciferase); type: cell-based; details: HepG2, 24 h, PC liposomes, FIG. 3
T1 construct: expressed in transfected cells; host or cells: HepG2
T1 sequence (Q07869 239-466 limits assumed): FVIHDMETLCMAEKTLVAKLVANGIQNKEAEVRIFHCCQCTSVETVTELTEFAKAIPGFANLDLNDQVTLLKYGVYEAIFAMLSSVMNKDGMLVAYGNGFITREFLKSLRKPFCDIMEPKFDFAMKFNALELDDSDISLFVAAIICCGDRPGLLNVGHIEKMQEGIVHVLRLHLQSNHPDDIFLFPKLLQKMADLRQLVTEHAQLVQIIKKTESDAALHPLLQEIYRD
Method: PPAR activation was tested in vitro in RK13 fibroblast cell lines or in a […] line HepG2 by measuring the transcriptional activity of chimeras composed of the DNA binding domain of the yeast gal4 transcription factor and the ligand binding domain of the different PPARs. The example below is given for HepG2 cells.
HepG2 cells were from ECACC (Porton Down, UK) and were grown in DMEM medium supplemented with 10% (V/V) fetal calf serum, 100 U/ml penicillin (Gibco, Paisley, UK) and 2 mM L-glutamine (Gibco, Paisley, UK). The culture medium was changed every two days. Cells were kept at 37° C. in a humidified 95% air/5% CO2 atmosphere.
The plasmids pG5TkpGL3, pRL-CMV, pGal4-hPPARα, pGal4-hPPARγ and pGal4-f have been described by Raspe et al. (Raspe, Madsen et al. 1999). The pGal4-mPPARα and pGal4-hPPARβ constructs were obtained by cloning PCR-amplified DNA fragments corresponding to the DEF domains of the mouse PPARα and human PPARβ nuclear receptors, respectively, into the pGal4-f vector.
HepG2 cells were seeded in 24-well culture dishes at 5×10^4 cells/well and transfected for 2 hours with the reporter plasmid pG5TkpGL3 (50 ng/well), the expression vectors pGal4-f, pGal4-mPPARα, pGal4-hPPARα, pGal4-hPPARγ, pGal4-hPPAβ (100 ng/well) and the transfection efficiency control vector pRL-CMV (1 ng/well) according to the previously described protocol (Raspe, Madsen et al. 1999), then incubated for 36 hours with the test compounds. At the end of the experiment, the cells were lysed (Gibco, Paisley, UK) and luciferase activity was determined with a Dual-Luciferase™ Reporter Assay System kit (Promega, Madison, Wis., USA) according to the supplier's instructions. The protein content of the cell extracts was then measured with the Bio-Rad Protein Assay (Bio-Rad, Munich, Germany) as directed by the supplier.
FIG. 3: HepG2 cells transfected with Gal4/PPARα plasmids were incubated with different concentrations of inventive compounds (5, 15, 50 and 100 μM) for 24 h and with different concentrations of the vehicle (PC). The results are expressed as the induction factor (luminescent signal relative to untreated cells) after the different treatments. […] The induction factors for compound Ex 4p were 35 at 100 μM, 44 at 50 μM, 36 at 15 μM and 24 at 5 μM. In contrast, when the cells were incubated with the vehicle (PC liposome), no significant induction was observed.

[3] = tested on: ischemia induced by occlusion of the middle cerebral artery; assay: Cerebral ischemia-reperfusion model, prophylactic treatment, brain infarct volume; type: in vivo, Wistar rats
Method: (§1) Wistar rats weighing 200 to 350 g were used for this experiment. Animals were treated by gavage with the inventive compounds (600 mg/kg/day) in suspension in the vehicle (0.5% carboxycellulose (CMC) and 0.1% Tween) or with the vehicle alone, for 14 days before ischemia induction by occlusion of the middle cerebral artery. Animals were anesthetized by intraperitoneal injection of 300 mg/kg chloral hydrate. A rectal probe was inserted and body temperature was maintained at 37° C.±0.5° C. Blood pressure was monitored throughout the experiment. Under a surgical microscope, the right carotid artery was exposed by a median incision in the neck. The pterygopalatine artery was ligated at its origin and an arteriotomy was fashioned in the external carotid artery so as to insert a nylon monofilament, which was gently advanced to the common carotid artery and then into the internal carotid artery so as to occlude the origin of the middle cerebral artery. The filament was withdrawn one hour later to allow reperfusion. Twenty-four hours after reperfusion, animals previously treated or not with the inventive compounds were euthanized by pentobarbital overdose. Brains were rapidly frozen and sliced. Sections were stained with cresyl violet. Unstained zones of the brain sections were considered to be damaged by the infarct. Areas (of the infarct and the two hemispheres) were measured and the volume of the infarct and the two hemispheres was calculated and the corrected infarct volume was determined by the following formula: (corrected infarct volume=infarct volume−(volume of right hemisphere−volume of left hemisphere)) to compensate for cerebral oedema.

[4] = tested on: ischemia induced by occlusion of the middle cerebral artery; assay: Cerebral ischemia-reperfusion model, curative or acute phase treatment, brain infarct volume; type: in vivo, Wistar rats
Method: as §1, with “Animals such as those described previously” for “Wistar rats weighing 200 to 350 g”, “experiment.” for “experiment. Animals were treated by gavage with the inventive compounds (600 mg/kg/day) in suspension in the vehicle (0.5% carboxycellulose (CMC) and 0.1% Tween) or with the vehicle alone, for 14 days before ischemia induction by occlusion of the middle cerebral artery.”, “Animals first subjected to ischemia-reperfusion were treated with the inventive compounds by the oral route (such as previously described in CMC+Tween vehicle) one or more times after reperfusion (600 mg/kg/day or 300 mg/kg/day bid). 24, 48 or 72” for “Twenty-four”, “the” for “the inventive”, “measured,” for “measured and”

[5] = prophylactic treatment, FIG. 4b

induction factor (luminescent signal relative to untreated cells) ([2]; 5 μM)	induction factor (luminescent signal relative to untreated cells) ([2]; 15 μM)	induction factor (luminescent signal relative to untreated cells) ([2]; 50 μM)	induction factor (luminescent signal relative to untreated cells) ([2]; 100 μM)	Compound	effect on the LDL oxidation rate (in words) ([1]; FIG. 2b)	increase in the lag phase [1]	decrease in the maximum amount of conjugated dienes formed ([1]; compound at 10^-4 M)	rate of conjugated diene formation (LDL oxidation rate) ([1]; compound at 10^-4 M)	also measured
				CCCCCCCCCCCCCCSCC(=O)OC(COC(=O)CCCCCCC)COC(=O)CCCCCCC [Ex 4q, 1,3-dioctanoyl-2-tetradecylthioacetylglycerol]	did not significantly alter	54%			
24 fold	36 fold	44 fold	35 fold	CCCCCCCCCCCCCCSCC(=O)OC(COC(C)=O)COC(C)=O [Ex 4p, 1,3-diacetyl-2-tetradecylthioacetylglycerol]					
17 fold	31 fold	41 fold	62 fold	CCCCCCCCCCCCCCSCC(=O)OCC(O)CO (stereo not drawn) [Ex 2a, 1-tetradecylthioacetylglycerol]	did not significantly alter	67%			
				CCCCCCCCCCCCCCCC(=O)OC(COC(=O)CSCCCCCCCCCCCCCC)COC(=O)CSCCCCCCCCCCCCCC [Ex 4o, 1,3-ditetradecylthioacetyl-2-palmitoylglycerol]	did not significantly alter	37%			
9 fold	18 fold	30 fold	41 fold	CCCCCCCCCCCCCCSCC(=O)OCC(COC(=O)CSCCCCCCCCCCCCCC)OC(=O)CSCCCCCCCCCCCCCC [Ex 4a, 1,2,3-tritetradecylthioacetylglycerol]		160%	60%	1 nmol/min/mg of LDL	decrease in the oxidation rate ([1]; compound at 10^-4 M, FIG. 2b): 66%; lag phase for conjugated diene formation ([1]; compound at 10^-4 M): 270 min; decrease in lesion size relative to control animals ([3]; oral, 300 mg/kg/day bid, 14 days before ischemia, FIG. 4a): 22%; corrected total infarct volume (lesion size) ([3]; oral, 300 mg/kg/day bid, 14 days before ischemia, controls 186 mm^3, FIG. 4a): 145 mm^3; decrease in lesions, cortical infarct (uncorrected infarct volume) [3, 5]: 22%; effect on striatal infarct (uncorrected infarct volume), in words [3, 5]: no significant decrease in lesions; lesions smaller than control animals ([4]; 600 mg/kg/day for 24 hours after ischemia, FIG. 4c): 27%; infarct volume ([4]; 600 mg/kg/day for 24 hours after ischemia, controls 180 mm^3, FIG. 4c): 132 mm^3; lesions smaller than control animals ([4]; 600 mg/kg/day for 72 hours after ischemia, FIG. 4e): 40%; corrected infarct volume ([4]; 600 mg/kg/day for 72 hours after ischemia, controls 180 mm^3, FIG. 4e): 110 mm^3; decrease in lesions, cortical infarct (uncorrected infarct volume) ([4]; acute phase 24 h, FIG. 4d): 25%; effect on striatal infarct (uncorrected infarct volume), in words ([4]; acute phase 24 h, FIG. 4d): no significant decrease in lesions; decrease in lesions, cortical infarct (uncorrected infarct volume) ([4]; acute phase 72 h, FIG. 4f): 32%; decrease in lesions, striatal infarct (uncorrected infarct volume) ([4]; acute phase 72 h, FIG. 4f): 23%
				1,3-dilinoleyl-2-tetradecylthioacetylglycerol [Ex 4h]		43%	24%	2.5 nmol/min/mg of LDL	
				CCCCCCCCCCCCCCCC(=O)OCC(COC(=O)CCCCCCCCCCCCCCC)OC(=O)CSCCCCCCCCCCCCCC [Ex 4g, 1,3-dipalmitoyl-2-tetradecylthioacetylglycerol]		170%	31%	1.8 nmol/min/mg of LDL	lag phase for conjugated diene formation ([1]; compound at 10^-4 M): 282 min
